Like-named read-outs stand apart in the source and are kept apart here.
Columns and labels:
[1] = biological target: T1, recombinant human 5-HT6 receptor (Homo sapiens, UniProt P50406); assay: Determination of Kb values for 5-HT6 receptor (CHO pCRE-Luc reporter assay); assay type: cell-based; details: antagonism of 10 uM serotonin, luciferase reporter, CHO cells
T1 construct: expressed in transfected cells
Procedure: A stable CHO cell line expressing recombinant human 5-HT6 receptor and pCRE-Luc reporter system was used for cell-based assay. The assay offers a non-radioactive based approach to determine binding of a compound to GPCRs. In this specific assay, the level of intracellular cyclic AMP which is modulated by activation or inhibition of the receptor is measured. The recombinant cells harbor luciferase reporter gene under the control of cAMP response element.
The above cells were grown in 96 well clear bottom white plates in Hams F12 medium containing 10% fetal bovine serum (FBS). Prior to the addition of compounds and/or agonist, cells were serum starved overnight. Increasing concentrations of test compounds were added along with 10 uM serotonin in Hams F12 medium containing 1% dialyzed FBS to the cells. The incubation was continued at 37° C. in CO2 incubator for 4 hours. Medium was removed and cells were washed with phosphate buffered saline. The cells were lysed and luciferase activity was measured in a Luminometer. Luminescence units were plotted against the compound concentrations using Graphpad software. EC50 values of the compounds were defined as the concentration required reducing the luciferase activity by 50%. The Kb values were calculated by feeding the concentration of the agonist used in the assay and its EC50 value in the same software.

[2] = Rodent pharmacokinetic study; assay type: in vivo; details: Wistar/Male rat, 10 mg/kg; for AUCt / Cmax / T1/2 / Tmax / AUC(0-t) / half-life: vehicle water (Ex. 8: 50% PEG 400); for bioavailability: Oral vs Intravenous
Procedure: Male wistar rats (230-280 grams) obtained from NIN (National Institute of Nutrition, Hyderabad, India) were used as an experimental animal. Three to five animals were housed in each cage. Animals were kept fasted over night and maintained on a 12 hours light/dark cycle. Three rats were dosed NCE (10 mg/Kg) orally and intravenously on day 0 and day 2.
At each time point blood was collected by jugular vein. Plasma was stored frozen at −20° C. until analysis. The concentrations of the NCE compound in plasma were determined using LC-MS/MS method. Schedule time points: Pre dose 0.25, 0.5, 1, 1.5, 2, 3, 4, 6, 8, 10, 12 and 24 hours after dosing (n=3). The NCE compounds were quantified in plasma by validated LC-MS/MS method using solid phase extraction technique. NCE compounds were quantified in the calibration range of 2-2000 ng/mL in plasma. Study samples were analyzed using calibration samples in the batch and quality control samples spread across the batch.
Pharmacokinetic parameters Cmax, Tmax, AUCt, T1/2 and Bioavailability were calculated by non-compartmental model using software WinNonlin version 5.1.

[3] = Object recognition task model; assay type: in vivo; details: rat, 10 mg/kg, p.o.
Procedure: The cognition-enhancing properties of compounds of this invention were estimated using a model of animal cognition: the object recognition task model.
Male Wister rats (230-280 grams) obtained from N.I.N. (National Institute of Nutrition, Hyderabad, India) was used as experimental animals. Four animals were housed in each cage. Animals were kept on 20% food deprivation before one day and given water ad libitum throughout the experiment and maintained on a 12 hours light/dark cycle. Also the rats were habituated to individual arenas for 1 hour in the absence of any objects.
One group of 12 rats received vehicle (1 mL/Kg) orally and another set of animals received compound of the formula (I) either orally or i.p., before one hour of the familiar (T1) and choice trial (T2).
The experiment was carried out in a 50×50×50 cm open field made up of acrylic. In the familiarization phase, (T1), the rats were placed individually in the open field for 3 minutes, in which two identical objects (plastic bottles, 12.5 cm height×5.5 cm diameter) covered in yellow masking tape alone (a1 and a2) were positioned in two adjacent corners, 10 cm. from the walls. After 24 hours of the (T1) trial for long-term memory test, the same rats were placed in the same arena as they were placed in T1 trial. Choice phase (T2) rats were allowed to explore the open field for 3 minutes in presence of one familiar object (a3) and one novel object (b) (Amber color glass bottle, 12 cm high and 5 cm in diameter). Familiar objects presented similar textures, colors and sizes. During the T1 and T2 trial, explorations of each object (defined as sniffing, licking, chewing or having moving vibrissae whilst directing the nose towards the object at a distance of less than 1 cm) were recorded separately by stopwatch. Sitting on an object was not regarded as exploratory activity, however, it was rarely observed. T1 is the total time spent exploring the familiar objects (a1+a2). T2 is the total time spent exploring the familiar object and novel object (a3+b).
The object recognition test was performed as described by Ennaceur, A., Delacour, J., 1988, A new one-trial test for neurobiological studies of memory in rats—Behavioural data, Behav. Brain Res., 31, 47-59.

[4] = Water maze (scopolamine induced reversal); assay type: in vivo; details: rat, p.o.
Procedure: The water maze apparatus consisted of a circular pool (1.8 m diameter, 0.6 m high) constructed in black Perspex (TSE systems, Germany) filled with water (24±2° C.) and positioned underneath a wide-angled video camera to track animal. The 10 cm^2 perspex platform, lying 1 cm below the water surface, was placed in the centre of one of the four imaginary quadrants, which remained constant for all rats. The black Perspex used in the construction of the maze and platform offered no intramaze cues to guide escape behavior. By contrast, the training room offered several strong extramaze visual cues to aid the formation of the spatial map necessary for escape learning. An automated tracking system, [Videomot 2 (5.51), TSE systems, Germany] was employed. This program analyzes video images acquired via a digital camera and an image acquisition boards that determined path length, swim speed and the number of entries and duration of swim time spent in each quadrant of the water maze.

[5] = in vivo; cited from earlier work

T1 sequence (P50406 whole entry): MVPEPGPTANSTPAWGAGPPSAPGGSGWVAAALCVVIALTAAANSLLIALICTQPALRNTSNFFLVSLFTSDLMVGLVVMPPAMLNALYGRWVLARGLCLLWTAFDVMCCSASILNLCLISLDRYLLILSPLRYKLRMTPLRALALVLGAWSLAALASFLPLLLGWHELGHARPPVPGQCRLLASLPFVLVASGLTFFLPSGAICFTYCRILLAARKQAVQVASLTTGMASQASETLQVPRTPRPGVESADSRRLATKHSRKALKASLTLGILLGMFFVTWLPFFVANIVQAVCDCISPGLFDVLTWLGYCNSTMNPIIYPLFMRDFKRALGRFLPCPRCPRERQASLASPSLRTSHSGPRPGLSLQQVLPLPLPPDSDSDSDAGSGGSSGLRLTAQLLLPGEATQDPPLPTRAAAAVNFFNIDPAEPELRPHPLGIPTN

In the case of `Cc1ccc(S(=O)(=O)c2c[nH]c3cc(Cl)ccc23)cc1NC1CCN(C)CC1` [Example 1, N-[2-methyl-5-(6-chloro-1H-indole-3-ylsulfonyl)phenyl]-N-(1-methypiperidin-4-yl)amine], the Kb [1] is reported as 1.55 nM, the AUCt ([2]; Intravenous) is reported as 2484 ± 853 ng·h/mL and the Cmax ([2]; Intravenous) is reported as 1644 ± 582 ng/mL. It also gave a T1/2 ([2]; Intravenous) of 5.23 ± 2.08 h, a Tmax ([2]; Intravenous) of 0.14 ± 0.10 h and a bioavailability [2] of 31 ± 12%. The AUCt ([2]; Oral) was 750 ± 363 ng·h/mL, the Cmax ([2]; Oral) was 128 ± 13 ng/mL and the T1/2 ([2]; Oral) was 6.38 ± 1.38 h. The Tmax ([2]; Oral) was 3.42 ± 2.74 h, the “Exploration time mean ± S.E.M, Familiar object” value [3] was 10.10 ± 1.84 s and the “Exploration time mean ± S.E.M, Novel object” value [3] was 13.22 ± 2.00 s. For the same molecule, the Inference [3] was “Active” and the “Scopolamine Induced Reversal” value [4] was “≦10 mg/kg, p.o”.
With `COc1ccc(S(=O)(=O)c2c[nH]c3cc(Cl)ccc23)cc1NC1CCNCC1` [Example 16, N-(Piperidin-4-yl)-N-[2-methoxy-5-(6-chloro-1H-Indole-3-ylsulfonyl)phenyl] amine] the Kb [1] was 0.22 nM, the “Exploration time mean ± S.E.M, Familiar object” value [3] was 8.10 ± 1.78 s and the “Exploration time mean ± S.E.M, Novel object” value [3] was 12.00 ± 1.84 s. For the same molecule, the Inference [3] was “Active”, the “Scopolamine Induced Reversal” value [4] was “≦10 mg/kg, p.o” and the melting point was 208 to 208.9 °C.
In the case of `COc1ccc(S(=O)(=O)c2c[nH]c3cc(Cl)ccc23)cc1NC1CCN(C)CC1` [Example 17, N-(1-Methylpiperidin-4-yl)-N-[2-methoxy-5-(6-chloro-1H-Indole-3-ylsulfonyl)phenyl] amine], the Kb [1] is reported as 0.82 nM, the AUC(0-t) ([2]; plasma, Intravenous) is reported as 5730 ± 2620 ng·h/mL and the half-life ([2]; plasma, Intravenous) is reported as 3.86 ± 0.09 h. It also gave a Cmax ([2]; plasma, Intravenous, read-out: Cmax) of 4220 ± 2250 ng/mL, a Tmax ([2]; plasma, Intravenous, read-out: Tmax) of 0.08 h and a bioavailability ([2]; plasma, read-out: Bioavailability) of 24 ± 2%. It also gave an AUC(0-t) ([2]; plasma, Oral) of 1430 ± 734 ng·h/mL, a half-life ([2]; plasma, Oral) of 1.86 ± 0.09 h and a Cmax ([2]; plasma, Oral, read-out: Cmax) of 379 ± 160 ng/mL. For the same molecule, the Tmax ([2]; plasma, Oral, read-out: Tmax) was 3 h and the melting point was 88.6 to 91.6 °C.
For `COc1ccc(NS(=O)(=O)c2sc3ccc(Cl)cc3c2C)cc1N1CCNCC1` [SB-271046, 5-Chloro-N-(4-methoxy-3-piperazin-1-ylphenyl)-3-methyl-2-benzothiophenesulfonamide], the “activity in animal tests related to positive or negative symptoms of schizophrenia” value [5] is listed as “inactive”.

From patent publication US9018231B2, “Sulfone compounds as 5-HT6 receptor ligands” (Suven Life Sciences Limited, priority 2010, dated 2015)
